Data set [1] has as its system patient with Rheumatoid Arthritis and anaemia. As to the kind of experiment: Treatment of a patient with anaemia of chronic disorder (Example 6). Type of data set: in vivo, human. On the procedure: The patient was treated in the period between Jan. 3, 1997 and Jan. 20, 1997.
Data set [2] has as its system patients suffering from different arthritic disorders of rheumatoid origin. The data set can be described thus: Treatment of patients with rheumatoid diseases (Example 7). Type of data set: in vivo, human. An excerpt: Stiffness: Joint stiffness is a complaint covering sensations which range from slight resistance to all movements through the normal range, to blocking of certain movements due to fixed anatomical changes. Certain types of stiffness are highly characteristic, such as early morning stiffness.
Early morning stiffness occurs primarily in rheumatoid arthritis, but also in other arthritic diseases. The patient awakes with distressing, painful stiffness of all affected joints. This is gradually “worked off ” by activity over one half to three hours or more. This “limbering up time” provides a reliable measure of inflammatory activity. In osteoarthritis stiffness tends to come on later in the day and is preceded by activity.
In one of the examples given of rheumatoid patients on galantamine, the parameters evaluated were tiredness, sleep, pain, and stiffness. […] All these parameters were evaluated with a questionaire and VAS (Visual Analogue Scale) which refer to the patients' reporting as regards the severity of the symptoms, represented by a 0-100 percentage line.

For data set [3] the following is noted: room temperature; galantamine and its acid addition salts; cited from earlier work.
For data set [4] the following is noted: humans; cited from earlier work.
Data set [5] deals with haemolysate cholinesterase (erythrocyte acetylcholinesterase). As to the kind of experiment: Cholinesterase activity in haemolysed whole blood (Sigma Diagnostics Cholinesterase (PTC) kit). Type of data set: biochemical, human. Conditions: 0 to 2.5 μg/ml added in vitro. The procedure: (§1) SIGMA DIAGNOSTICS® CHOLINESTERASE (PTC) kit, available from Sigma Diagnostics, can be used for determining the activity and selectivity of cholinesterase inhibitors.
(§2) Reactions involved in the cholinesterase assay are as follows:
(§3) Propionylthiocholine+H2O→Propionic Acid+Thiocholine
(§4) Thiocholine+5, 5′-Dithiobis-2-Nitrobenzoic Acid→5-Thio-2-Nitrobenzoic Acid
(§5) 5-Thio-2-Nitrobenzoic Acid is assessed by measuring the absorbance at 405 nm. The rate of change in absorbance at 405 nm is directly proporational to cholinesterase activity.
(§6) The activity of erythrocyte cholinesterase may be calculated on the basis of the measurement of butyrylcholinesterase (pseudocholinesterase) in serum and cholinesterase in haemolyzed whole blood (haemolysate), both measured simultaneously by the method described above, and evaluated according to the haematocrit value according to the formula
HChE=(EChE×Hctg*)+(PChE×(1-Hct*))
In the above formulae, EChE is erythrocyte cholinesterase activity, PChE is plasma cholinesterase activity, HChE is haemolysate cholinesterase activity, and Hct is haematocrit value of the sample.
Another way of assessing the cholinesterase activity is to measure the plasma cholinesterase and the cholinesterase in purified haemolyzed erythrocytes. By doing this, the values are obtained directly.
Blood samples from 3 patients were tested with the Sigma test. […]

Data set [6] concerns the target T1, butyrylcholinesterase (pseudocholinesterase) in serum (Homo sapiens, UniProt P06276).
T1 construct: butyrylcholinesterase (pseudocholinesterase) in serum; from tissue; host or cells: serum of patients
The data set can be described thus: Cholinesterase activity in serum (Sigma Diagnostics Cholinesterase (PTC) kit). Type of data set: biochemical. Conditions: 0 to 2.5 μg/ml added in vitro. The procedure:
as §1, §2, §3, §4, §5, §6
Blood samples from 3 patients were tested with the Sigma test. […] The results are shown below in table 1.1.

Data set [7] deals with patients with osteoarthritis. The data set can be described thus: Treatment of patients with osteoarthritis (Example 5). Type of data set: in vivo, human.
For data set [8] the following is noted: in vivo; cited from earlier work.

Where a name gives a salt, the structure may show the parent alone.

T1 sequence (P06276 29-602): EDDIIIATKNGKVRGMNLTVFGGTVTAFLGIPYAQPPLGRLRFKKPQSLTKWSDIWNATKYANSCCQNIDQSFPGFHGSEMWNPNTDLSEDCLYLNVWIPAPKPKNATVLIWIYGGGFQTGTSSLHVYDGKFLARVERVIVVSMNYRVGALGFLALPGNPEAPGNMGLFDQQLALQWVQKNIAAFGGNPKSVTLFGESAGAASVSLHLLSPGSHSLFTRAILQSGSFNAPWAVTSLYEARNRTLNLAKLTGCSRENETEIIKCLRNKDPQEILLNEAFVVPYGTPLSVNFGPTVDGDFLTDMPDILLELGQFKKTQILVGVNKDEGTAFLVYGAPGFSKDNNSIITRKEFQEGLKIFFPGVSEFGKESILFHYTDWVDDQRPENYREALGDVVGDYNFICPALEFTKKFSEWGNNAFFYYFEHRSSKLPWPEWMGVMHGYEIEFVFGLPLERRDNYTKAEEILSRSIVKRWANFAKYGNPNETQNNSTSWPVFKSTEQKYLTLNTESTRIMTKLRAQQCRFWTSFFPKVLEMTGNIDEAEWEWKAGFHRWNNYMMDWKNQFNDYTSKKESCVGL

As to `COc1ccc2c3c1O[C@H]1C[C@@H](O)C=C[C@@]31CCN(C)C2` [galantamine], in data set [1] (20-1-97, after treatment with 15 mg per day orally, normal 0.360-0.470, 0.342 on 3-1-97), the Haematocrit is 0.362 L/L. In addition, in data set [1] (20-1-97, after treatment with 15 mg per day orally, normal 3.8-10.2, 6.6 on 3-1-97), the White cells came out at 5.9e+09 L⁻¹. Also, the Red cells in data set [1] (20-1-97, after treatment with 15 mg per day orally, normal 4.00-5.8, 3.72 on 3-1-97) is 3.94e+12 L⁻¹. This compound came in with a Haemoglobin in data set [1] (20-1-97, after treatment with 15 mg per day orally, normal 118-158, 115 on 3-1-97) of 124 g/L. Also, the “patients reporting a significant improvement in their symptoms” value in data set [2] (13 patients, patient numbers 1, 2, 3, 5, 9, 10 and 12) was 50%. Further, the “augmentation of grip strength” value in data set [2] (one RA patient (patient number 1)) is given as “over 50%”. Moreover, the solubility in water result in data set [3] is on record as “only sparingly soluble”. Moreover, the “passing the blood-brain barrier” value in data set [4] is listed as “capable of passing the blood-brain barrier”.
As to `COc1ccc2c3c1O[C@H]1C[C@@H](O)C=C[C@@]31CCN(C)C2` [galantamine hydrobromide], in data set [5], the “Change of haemolysate cholinesterase activity with increased concentration” value was “significant reduction”. The “Change of serum cholinesterase activity as response to addition” value in data set [6] is “do not show any statistically significant changes”. The “joint pain symptoms, second patient” value in data set [7] (10 mg per day (2 x 5 mg tablets), after three days, osteoarthritis not diagnosed) was “improvement in symptoms”. For the same compound, the “osteoarthritis symptoms, first volunteer” value in data set [7] (10 mg per day orally (2 x 5 mg), after seven days, maintained over 31 days, dose raised to 30 mg per day) is recorded as “improvement in osteoarthritis symptoms”. Besides, in data set [7] (after 31 day period), the “symptoms when medication was discontinued, first volunteer” value is listed as “Symptoms were reported to recur”. The “laboratory blood tests reflecting anaemia” value in data set [1] (15 mg per day (3 x 5 mg orally), after 14 days) is given as “significant improvement”. Further, the elimination half life entry in data set [8] is recorded as “over four”.

The values are drawn from patent publication US6358941B1, “Treatment of arthritis disorders, rheumatoid arthritis and manifestations associated with rheumatoid disorders” (priority 1996, dated 2002).
